Numbers after ± are expanded uncertainties.
What was measured:
[1] = xn = mol fraction of the nth substance listed; conditions: x2 = 0; for mass density / speed of sound / viscosity: 100 kPa, Liquid
[2] = refractive index (Na D-line) (dimensionless); xn = mol fraction of the nth substance listed; conditions: 100 kPa, Liquid, x2 = 0
[3] = for mass density / speed of sound / viscosity: 100 kPa, Liquid
[4] = refractive index (Na D-line) (dimensionless); conditions: 101.33 kPa, Liquid

Clc1ccccc1 [chlorobenzene] + COc1ccc(C=O)cc1
Conditions | mass density, [1] [kg/m3] | refractive index, [2] | speed of sound, [1] [m/s] | surface tension liquid-gas, [1] [mN/m] | viscosity, [1] [mPa·s]
303.15 K | 1102 ± 4.7 | 1.559 ± 0.0012 | 1220 ± 170 | 33.6 ± 1.9 | 0.7105 ± 0.074
313.15 K | 1080 ± 4.9 | 1.5509 ± 0.0012 | – | 32.3 ± 1.8 | 0.6914 ± 0.072
323.15 K | 1067.4 ± 5.2 | 1.548 ± 0.0012 | 695 ± 120 | 31.26 ± 1.8 | 0.5543 ± 0.06

COc1ccc(C=O)cc1 [4-methoxybenzaldehyde]
Conditions | mass density, [3] [kg/m3] | refractive index, [4] | speed of sound, [3] [m/s] | surface tension liquid-gas, [3] [mN/m] | viscosity, [3] [mPa·s]
303.15 K | 1125.5 ± 4.8 | 1.5571 ± 0.0012 | 1684 ± 220 | 99.08 ± 4.9 | 3.275 ± 0.29
313.15 K | 1119.1 ± 5.1 | 1.5488 ± 0.0012 | 1631 ± 210 | 96.11 ± 4.8 | 2.97 ± 0.27
323.15 K | 1114.1 ± 5.5 | 1.5463 ± 0.0012 | 1571 ± 200 | 94.1 ± 4.7 | 2.442 ± 0.22

Clc1ccccc1 [chlorobenzene]
Conditions | mass density, [3] [kg/m3] | refractive index, [4] | speed of sound, [3] [m/s] | surface tension liquid-gas, [3] [mN/m] | viscosity, [3] [mPa·s]
303.15 K | 1102 ± 4.7 | – | 1220 ± 170 | 33.6 ± 1.9 | 0.7105 ± 0.074
313.15 K | 1080 ± 4.9 | – | – | 32.3 ± 1.8 | 0.6914 ± 0.072
323.15 K | 1067.4 ± 5.2 | 1.548 ± 0.0012 | 695 ± 120 | 31.26 ± 1.8 | 0.5543 ± 0.06
